Tests used:
AMPK = AMPK phosphorylation blot of patient mononuclear cells after CPI-613 infusion; type: in vivo, human; settings: two patients, day one after infusion
Experimental: (§1) FIGS. 9A-9C. AMPK Contributes to Resistance to CPI-613. (FIG. 9A) CPI-613 induces AMPK phosphorylation. Blood samples were taken on day one of treatment at the indicated time points following infusion of CPI-613. Red blood cells were lysed, and mononuclear cells were isolated. Extracts were prepared and blotted for phosphorylated AMPK. Both patients had circulating blasts at the time of sampling. Actin was used as a loading control. (FIG. 9B) Competition assay. Cas9 expressing MFL2 cells were partially infected with an sgRNA vector targeting AMPK tagged with GFP. Cells were incubated with the indicated drug for 72 hours and the % GFP+determined in the viable population. (FIG. 9C) Viability assay. Clones of Cas9 expressing MFL2 cells with sgRNAs targeting AMPK or ROSA26 were incubated with the indicated drug for 72 hours and viability determined.
(§2) Several patients had blood samples taken before and after CPI-613 infusion. […] The role of AMPK in response was assessed by competition assays using Cas-9 expressing AML cells that have deleted AMPK (FIG. 9B).

[1] = tested on: relapsed or refractory AML; test: Phase I study of CPI-613 in combination with high dose cytarabine and mitoxantrone; type: in vivo, human
Excerpt: FIGS. 8A-8B. Survival compared to historical cohort. CPI-HAM survival in the evaluable population compared to a historical cohort. (FIG. 8A) Kaplan-Meier curve of overall survival of elderly AML patients treated with high dose cytarabine, mitoxantrone, and CPI-613 (CPI-HAM) or a historical cohort of poor risk relapsed or refractory patients treated with high dose cytarabine, mitoxantrone, and asparaginase (HAMA). (FIG. 8B) Kaplan-Meier curve of overall survival of poor risk, relapsed or refractory AML patients treated with high dose cytarabine, mitoxantrone, and CPI-613 (CPI-HAM) or a historical cohort of poor risk relapsed or refractory patients treated with high dose cytarabine, mitoxantrone, and asparaginase (HAMA). Kaplan-Meier estimates were compared by log-rank test.
In a recently completed phase I study, CPI-613 was given in combination with high dose cytarabine and mitoxantrone to patients with relapsed or refractory AML (FIGS. 6-7). In this trial, 67 patients were enrolled and 62 were evaluable. […] The median age was 60 years (range 21-79). In patients with relapsed disease the median duration of CR1 was 11.2 months. Cytogenetics were poor risk in 27 patients, intermediate in 33, and good in 6. In the 62 evaluable patients the results were as follows. The overall response rate was 50% (26CR+5CRi) with a median survival of 6.7 months. […] When compared to historical controls treated with the same chemotherapy without CPI-613 an increase in response rate was seen. […] Additionally, the median survival of the historical patients was only 2.8 months while the median survival in the CPI-613 treated patients was 5.5 months (FIG. 8B). […] In patients >60 years old the CR/CRi rate was 47% (15/32) with a median survival of 6.9 months (FIG. 8A).

Baf3-p210 cells = test: Survival of Balb/c mice injected with Baf3-p210 cells; type: in vivo; settings: CPI at 250 mg/kg plus Doxorubicin at 3 mg/kg, day 3
Experimental: FIG. 4. […] Balb/c mice were injected with Baf3-p210 cells and on day 3 treated with saline (control), Doxorubicin at 3 mg/kg or CPI at 250 mg/kg plus doxorubicin. Dox=Doxorubicin, CPI=CPI-613. P value shown is for Dox vs CPI-Dox.

PDH = PDH phosphorylation in patient blood samples before and after CPI-613 infusion; type: in vivo, human; settings: three patients
Experimental: as §2

Murine AML cells (M1p5) = test: Viability of M1p5 AML cells expressing p53 shRNA or vector control; type: cell-based; settings: 72 hours; for response of p53 shRNA cells compared to vector controls (viability): single agent
Experimental: FIGS. 10A-10C. CPI-613 induces chemotherapy sensitivity in p53 suppressed AML cells. (FIG. 10A) Murine AML cells (M1p5) expressing an shRNA against p53 (p53 shRNA) or vector control (GFP Control) were exposed to the indicated amount of CPI-613 (in μmoles). After 72 hours viability was determined and compared to untreated cells. (FIG. 10B) Murine AML cells (M1p5) expressing an shRNA against p53 (p53 shRNA) or vector control (GFP Control) were exposed to the indicated amount of doxorubicin (in nmoles). After 72 hours viability was determined and compared to untreated cells. (FIG. 10C) Murine AML cells (M1p5) expressing an shRNA against p53 (p53 shRNA) or vector control (GFP Control) were exposed to 50 μM CPI-613 and 2.5, 5, or 10 nM Doxorubicin for 72 hours. Following exposure viability was assessed and compared to untreated cells.
Loss of p53 is associated with poor risk cytogenetics, poor prognosis and resistance to chemotherapy but not resistance to CPI-613. In AML patients poor risk karyotypes are associated with p53 loss or mutation in 70-80% of cases (13, 29). Indeed it has been argued that much of the prognostic importance of poor risk karyotypes is mediated by p53 loss (13). This is not surprising given the association between p53 status and response to chemotherapy in AML (30). In order to assess the consequences of p53 suppression on mitochondrial inhibition we generated murine AML cells that knocked down p53 by shRNA.

[2] = tested on: AMPK deleted MFL2 AML cells; test: Competition assay, Cas9 expressing MFL2 cells with sgRNA targeting AMPK; type: cell-based; settings: 72 hours with drug, % GFP+ in the viable population
Experimental: as §1, §2

AML cell lines = test: AML cell growth under mitochondrial inhibition; type: cell-based, human and murine; settings: for AML cell growth: multiple human and murine cell lines, single agent
[3] = tested on: advanced myeloid malignancies; settings: single agent; heavily pre-treated cohort; cited from earlier work
OCI-AML3 = test: Oxygen consumption rate after Ara-C, OCI-AML3; type: cell-based; settings: Ara-C for 16 hours
Experimental: (§3) FIGS. 2A-2B. […] K562 cells (FIG. 2A) and OCI-AML3 (FIG. 2B) and were treated with Ara-C for 16 hours and oxygen consumption rate (OCR) was assessed. Shown is the average OCR from 3 independent experiments each done in triplicate. P value for OCI-AML3 is 0.0387 and for K562 is <0.0001.

K562 cells = test: Oxygen consumption rate after Ara-C, K562; type: cell-based; settings: Ara-C for 16 hours
Experimental: as §3

[4] = 62 evaluable patients, CPI-613 with high dose cytarabine and mitoxantrone

Q: With O=C(O)CCCCC(CCSCc1ccccc1)SCc1ccccc1 (stereo not shown) [CPI-613] as the compound, how does the “phosphorylation of AMPK” value (AMPK) read?
A: Its value is “robust phosphorylation of AMPK”.

Q: And the median survival [1, 4]?
A: Its median survival is 6.7 months.

Q: What about the “overall response rate (CR+CRi)” value [1, 4] of the same compound?
A: Its value is 50%.

Q: What about the “CR/CRi rate, patients >60 years old” value ([1]; patients >60 years old (15/32)) of the same compound?
A: The value was 47%.

Q: And the “median survival, patients >60 years old” value ([1]; patients >60 years old (FIG. 8A))?
A: The value was 6.9 months.

Q: What about the “median survival for all others” value ([1]; patients without response, CPI-613 with high dose cytarabine and mitoxantrone) of the same compound?
A: Its value is 3 months.

Q: And the “median survival, poor risk” value ([1]; poor risk CPI-613 treated patients (FIG. 8B))?
A: The value was 5.5 months.

Q: What about the “response rate, poor risk cytogenetics” value ([1]; poor risk cytogenetics (9CR+2CRi/24), CPI-613 with high dose cytarabine and mitoxantrone) of the same compound?
A: The value was 46%.

Q: And the “response rate versus historical controls, poor risk disease” value ([1]; poor risk disease, compared with the same chemotherapy without CPI-613)?
A: The value was “more than doubled”.

Q: What about the “median survival in responders” value ([1]; responders, CPI-613 with high dose cytarabine and mitoxantrone) of the same compound?
A: Its value is 13.2 months.

Q: And the “combination effect with doxorubicin in vivo” value (Baf3-p210 cells)?
A: The value was “acts synergistically with doxorubicin in vivo”.

Q: And the “phosphorylation of PDH” value (PDH)?
A: Its value is “increased phosphorylation of PDH”.

Q: What about the “sensitivity of p53 shRNA cells to doxorubicin in presence of CPI-613” value (Murine AML cells (M1p5); 50 μM CPI-613 and 2.5, 5, or 10 nM Doxorubicin) of the same compound?
A: The value was “increased sensitivity to doxorubicin to that of the controls”.

Q: And the “response of p53 shRNA cells compared to vector controls (viability)” value (Murine AML cells (M1p5))?
A: Its value is “no change in response”.

Q: What about the “competition of normal versus AMPK deleted cells” value [2] of the same compound?
A: Its value is “Normal cells out-competed AMPK deleted cells”.

Q: And the AML cell growth (AML cell lines)?
A: Its AML cell growth is “impairs AML cell growth”.

Q: And the “combination effect of metformin and CPI-613” value (AML cell lines; the two together)?
A: The value was “synergistic in vitro and in vivo”.

Q: And the overall response rate [3]?
A: Its overall response rate is 29%.

Q: For Nc1ccn([C@@H]2O[C@H](CO)[C@@H](O)[C@@H]2O)c(=O)n1 [cytarabine], which “oxygen consumption rate (OCR)” value (OCI-AML3) is on record?
A: Its value is “induces mitochondrial metabolism”.

Q: What about the “oxygen consumption rate (OCR)” value (K562 cells) of the same compound?
A: The value was “induces mitochondrial metabolism”.

Q: Which “response of p53 shRNA cells compared to vector controls (viability)” value (Murine AML cells (M1p5)) does the source give for COc1cccc2c1C(=O)c1c(O)c3c(c(O)c1C2=O)C[C@@](O)(C(=O)CO)C[C@@H]3O[C@H]1C[C@H](N)[C@H](O)[C@H](C)O1 [doxorubicin] here?
A: The value was “significantly resistant”.

Q: Which AML cell growth (AML cell lines) does the source give for CN(C)C(=N)N=C(N)N [metformin] here?
A: Its AML cell growth is “impairs AML cell growth”.
